Laboratory results from PMC7374060, “An Antivirulence Approach for Preventing Cryptococcus neoformans from Crossing the Blood-Brain Barrier via Novel Natural Product Inhibitors of a Fungal Metalloprotease” (mBio, 2020).
pIC50: −log10 of the molar value.

Biological target: T1, Mpr1 (Cryptococcus neoformans, UniProt J9VXZ9)
T1 construct: gene CNAG_04735; recombinant His-tagged Mpr1 secreted from Pichia pastoris expressing CnMPR1-HIS cDNA
Test: FITC-casein proteolysis assay with purified recombinant Mpr1-His
Type: biochemical

T1 sequence (J9VXZ9 entry or part of it): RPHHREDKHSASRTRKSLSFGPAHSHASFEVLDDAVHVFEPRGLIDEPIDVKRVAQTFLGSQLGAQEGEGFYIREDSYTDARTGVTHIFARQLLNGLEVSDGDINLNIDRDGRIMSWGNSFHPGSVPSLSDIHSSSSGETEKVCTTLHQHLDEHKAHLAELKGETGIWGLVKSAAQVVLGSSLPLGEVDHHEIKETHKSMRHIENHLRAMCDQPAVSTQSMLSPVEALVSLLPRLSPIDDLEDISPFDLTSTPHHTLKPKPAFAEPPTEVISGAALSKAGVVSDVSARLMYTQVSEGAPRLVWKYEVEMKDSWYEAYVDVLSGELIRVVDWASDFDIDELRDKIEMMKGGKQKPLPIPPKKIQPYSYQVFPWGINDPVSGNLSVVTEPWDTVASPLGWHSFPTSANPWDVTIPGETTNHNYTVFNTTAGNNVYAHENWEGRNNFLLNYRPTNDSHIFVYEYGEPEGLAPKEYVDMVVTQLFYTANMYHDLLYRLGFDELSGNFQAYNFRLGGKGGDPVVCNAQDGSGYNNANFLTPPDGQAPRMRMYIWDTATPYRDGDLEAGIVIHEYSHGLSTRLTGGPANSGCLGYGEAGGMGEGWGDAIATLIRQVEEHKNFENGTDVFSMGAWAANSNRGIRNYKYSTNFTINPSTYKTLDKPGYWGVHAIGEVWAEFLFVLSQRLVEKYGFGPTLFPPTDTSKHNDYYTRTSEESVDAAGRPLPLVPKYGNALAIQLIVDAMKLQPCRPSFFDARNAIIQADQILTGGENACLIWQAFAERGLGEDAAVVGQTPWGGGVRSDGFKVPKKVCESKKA

Row | SMILES | pIC50
1 | CC(C)C1=CC2=CC[C@@H]3[C@](C)(CCC[C@@]3(C)C(=O)O)[C@H]2CC1 [NP001-1C11, abietic acid] | 5.29
2 | C[C@@H]1CC[C@@]2(OC1)O[C@H]1C[C@H]3[C@@H]4CC=C5C[C@@H](O)CC[C@]5(C)[C@H]4CC[C@]3(C)[C@H]1[C@@H]2C [NP002-1D9, diosgenin] | 5.30
3 | OC[C@@H]1CCCN2CCCC[C@H]12 [NP003-2B11, lupinine] | 5.02
